Measured values reported in patent publication US20100087534A1, “Use of a Photosensitizing Agent in the Treatment or Prevention of an Inflammation-Associated Disorder in the Gastrointestinal Tract of a Mammal” (priority 2005, published 2010).

Legend:
[1] = test system: TNF-α; experiment: TNF-α expression index in colon of transfer colitis SCID mice (FIG. 2); type: in vivo
Protocol: FIG. 2 represents the expression indices of the proinflammatory markers IFN-γ and TNF-α in untransfered mice, disease control group and PDT group (15 mg/kg of δ-ALA, 10 J/cm^2).
Typically, the expression index of each pro-inflammatory marker of interest is calculated (normalized number of mRNA copies of each manipulated mice/normalized number of mRNA copies of the unmanipulated mice). The results are given as mean values of the expression index (unmanipulated mean mice index=1). […]
(§1) The third portion was used for measuring the expression of the molecules involved in immune and inflammatory phenomenons in the colonic mucosa (cytokines, chemokines). […] Quantification of reverse transcripted messenger RNA for GAPDH, the inducible nitric oxide synthetase (iNOS), interferon-gamma (IFN-γ), interleukin-1 receptor antagonist (IL1-Ra), tumor necrosis factor alpha (TNF-α), interleukin 6 (IL-6), tumor growth factor beta (TGF-13) and interleukin10 (IL-10) was performed by quantitative real-time PCR in a BioRad Real-time PCR iCycler using specific pairs of primers and the green fluorescence dye SYBR—Green®. GAPDH was used to normalize quantifications within each individual sample (normalization of the number of mRNA copies for the gene of interest/1 million mRNA copies of the GAPDH gene of the investigated mouse). […]

[2] = test system: iNOS; experiment: Expression index of iNOS mRNA in illuminated colon, quantitative real-time PCR; type: in vivo, BALB/c mice; settings: high dose PDT: 50 J/cm^2, 60 mg δ-ALA; 74 h; unmanipulated mice index=1
From the text: as §1, with “chemokines). For RNA extraction this portion was conserved in RNA-later solution (Ambion Inc. Austin, USA) until processing. RNA was extracted from the tissues using a Rneasy Mini kit (Qiagen, Hombrechtikon, Switzerland). RNA samples were submitted to a second or third DNAse treatment in order to get rid of all traces of genomic DNA. Quality of the RNA samples was tested on agarose gels and absence of genomic DNA was tested by PCR using primers specific for a house keeping gene, glyceraldehydes-3-phosphate-dehydrogenase (GAPDH).” for “chemokines).”

[3] = test system: CD4+ cells in the colonic mucosa; experiment: Anti-CD4 immunostaining of treated colonic mucosa; type: in vivo, SCID mice; settings: low dose PDT, 3 days after PDT, compared to DC mice
Protocol: PDT was performed with a photosensitizing agent (δ-ALA) dose of 15 mg/kg, administered 3 hours before the illumination with the energy dose of 10 J/cm^2 per gastrointestinal tract tissue.
Mice were monitored by colonoscopy at day 3 and weeks 1, 2, 3 and 4 post PDT treatment. In addition to parameters investigated in example 1, CD4 immunostaining and apoptosis detection were performed.
For anti-CD4 immunostaining, frozen sections were extensively dried, fixed with 100% acetone at 4° C. and rehydrated in PBS. Sections were then blocked for 20 minutes with a PBS solution containing 0.1% BSA (Sigma-Aldrich Inc., St-Louis, USA) and 0.5% NMS. CD4 detection was performed by incubation of the sections for 1 hour with a cell culture supernatant originating from an hybridoma secreting rat anti-mouse CD4 (clone H129.19). After washing with PBS, an Alexa Fluor 488-conjugated goat anti-rat IgG at a final concentration of 5 ng/ml in PBS 0.1% BSA, 1% NMS was used as secondary antibody and incubated for 45 minutes before two last PBS washings. All incubations were done at room temperature unless specified otherwise.

[4] = test system: IFN-γ; experiment: Expression index of IFN-γ mRNA in illuminated colon, quantitative real-time PCR; type: in vivo, BALB/c mice
From the text: The third portion was used for measuring the expression of the molecules involved in immune and inflammatory phenomenons in the colonic mucosa (cytokines, chemokines). For RNA extraction this portion was conserved in RNA-later solution (Ambion Inc. Austin, USA) until processing. RNA was extracted from the tissues using a Rneasy Mini kit (Qiagen, Hombrechtikon, Switzerland). RNA samples were submitted to a second or third DNAse treatment in order to get rid of all traces of genomic DNA. Quality of the RNA samples was tested on agarose gels and absence of genomic DNA was tested by PCR using primers specific for a house keeping gene, glyceraldehydes-3-phosphate-dehydrogenase (GAPDH). RNA preparations were then submitted to reverse transcription using the ThermoScript™ RT-PCR system (Invitrogen, Basel, Switzerland) using an Oligo-dT as primer. Quantification of reverse transcripted messenger RNA for GAPDH, the inducible nitric oxide synthetase (iNOS), interferon-gamma (IFN-γ), interleukin-1 receptor antagonist (IL1-Ra), tumor necrosis factor alpha (TNF-α), interleukin 6 (IL-6), tumor growth factor beta (TGF-13) and interleukin10 (IL-10) was performed by quantitative real-time PCR in a BioRad Real-time PCR iCycler using specific pairs of primers and the green fluorescence dye SYBR—Green®. GAPDH was used to normalize quantifications within each individual sample (normalization of the number of mRNA copies for the gene of interest/1 million mRNA copies of the GAPDH gene of the investigated mouse). Expression of each gene of interest was finally calculated as an expression index (normalized number of mRNA copies of each manipulated mice/normalized number of mRNA copies of the unmanipulated mice) and the results are given as mean values of the expression index (unmanipulated mean mice index=1). Furthermore one kidney and a part of the liver were collected for pathological analysis to exclude hepato- or nephrotoxicity.

NCC(=O)CCC(=O)O [δ-ALA, 5-aminolevulinic acid]
expression index TNF-α after low dose PDT ([1]; 15 mg/kg δ-ALA, 10 J/cm^2, versus disease control group (FIG. 2)): decreased significantly | decrease of the expression of pro-inflammatory marker TNF-α ([1]; 10 J/cm^2, 15 mg/kg δ-ALA, compared to "colonoscopy" mice, deduced from FIG. 2): 63% | expression index iNOS [2]: 27.78±10.47 | number of CD4+ cells in the treated colonic mucosa [3]: obvious diminution in the number of CD4^+ cells | expression index IFN-γ ([4]; high dose PDT: 50 J/cm^2, 60 mg δ-ALA, 74 h, unmanipulated mice index=1): 5.36±1.67 | expression index IFN-γ ([4]; low dose PDT 15 mg/kg δ-ALA, 10 J/cm2): 0.93±0.09 | expression index IFN-γ ([4]; low dose PDT 5J/cm2, 15 mg/kg δ-ALA): 1.92±0.50
